Results from publication PMC7044277 (Nature Communications, 2020).
Where “and” joins values, the source holds several entries; their conditions need not be identical. Equal entries are not always repeated.

Key:
Assay type in all cases: cell-based
[1] = biological target: DRD2 (D2 long receptor) (Homo sapiens, UniProt P14416); experiment: Gαi1-γ2 dissociation BRET assay, HEK293T; settings: agonist
[2] = biological target: T1, 320 non-olfactory GPCRs (Homo sapiens, UniProt Q15391); settings: receptor P2RY14; replicate values, Fig_4g;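 also: fold over basal response of each receptor without drug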
T1 construct: expressed in transfected cells; host or cells: HTLA cells

[3] = biological target: DRD3 F1063.28A (Homo sapiens, UniProt P35462, F106A); experiment: cell-based
Sequence of DRD3 F1063.28A (P35462 whole entry F106A): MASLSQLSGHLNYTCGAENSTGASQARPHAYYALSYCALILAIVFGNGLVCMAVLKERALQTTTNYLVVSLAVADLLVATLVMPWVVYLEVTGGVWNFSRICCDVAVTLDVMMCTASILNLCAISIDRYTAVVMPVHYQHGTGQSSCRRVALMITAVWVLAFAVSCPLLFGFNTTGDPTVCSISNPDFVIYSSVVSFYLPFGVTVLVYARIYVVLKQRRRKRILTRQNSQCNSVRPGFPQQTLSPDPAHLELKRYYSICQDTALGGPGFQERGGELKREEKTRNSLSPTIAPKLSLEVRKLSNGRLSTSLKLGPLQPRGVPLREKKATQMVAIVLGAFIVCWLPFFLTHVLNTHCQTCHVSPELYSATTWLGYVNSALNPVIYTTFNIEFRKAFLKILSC

T1 sequence (Q15391 whole entry): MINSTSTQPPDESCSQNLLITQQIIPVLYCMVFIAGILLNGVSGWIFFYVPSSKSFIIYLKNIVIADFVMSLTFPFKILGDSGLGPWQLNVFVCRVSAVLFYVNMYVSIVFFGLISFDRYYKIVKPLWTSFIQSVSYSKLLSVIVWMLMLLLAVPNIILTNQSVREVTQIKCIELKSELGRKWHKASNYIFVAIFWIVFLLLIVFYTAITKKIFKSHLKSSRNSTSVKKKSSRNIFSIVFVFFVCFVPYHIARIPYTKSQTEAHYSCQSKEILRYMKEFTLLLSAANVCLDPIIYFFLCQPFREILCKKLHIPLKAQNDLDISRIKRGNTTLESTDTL
Sequence of DRD2 (D2 long receptor) (P14416 whole entry): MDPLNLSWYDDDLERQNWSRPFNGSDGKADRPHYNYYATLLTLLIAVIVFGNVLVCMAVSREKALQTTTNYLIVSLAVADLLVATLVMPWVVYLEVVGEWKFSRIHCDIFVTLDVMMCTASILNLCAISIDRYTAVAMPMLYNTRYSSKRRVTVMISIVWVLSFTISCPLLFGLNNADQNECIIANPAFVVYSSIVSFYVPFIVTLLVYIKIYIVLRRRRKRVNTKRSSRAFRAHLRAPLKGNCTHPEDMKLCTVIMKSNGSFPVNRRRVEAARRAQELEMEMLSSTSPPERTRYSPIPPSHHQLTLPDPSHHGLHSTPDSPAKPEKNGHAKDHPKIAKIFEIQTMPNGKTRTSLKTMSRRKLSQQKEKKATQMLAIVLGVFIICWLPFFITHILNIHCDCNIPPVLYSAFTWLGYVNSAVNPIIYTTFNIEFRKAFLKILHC

In the case of `CCOc1cccc2cc(C(C)NCC3(O)CCCCC3)oc12` (stereo not drawn) [O4LE6], the EC50 [1] is reported as 24.1 nM, the “GPCRome agonism screen response” value [2] is reported as 0.8976 and 0.7161 and 0.7434 and 0.9997 and the EC50 [3] is reported as over 10000 nM.
